{"source": "patent US12133913B2", "about": "“Methods of treating overactive bladder using trospium” (TARIS BIOMEDICAL LLC, priority 2018, dated 2024)", "origin": "cited, not measured here", "key": {"[1]": {"details": "in vivo"}, "[2]": {"tested_on": "oral naïve overactive bladder patients"}}, "note": "Structures can show the parent of a compound that is named as a salt. Where two headings read alike, the source gives them in different places.", "data": [{"compound": "O=C(OC1CC2CCC(C1)[N+]21CCCC1)C(O)(c1ccccc1)c1ccccc1.[Cl-]", "note": "(stereo not drawn) [oral trospium, 3-(2-hydroxy-2,2-diphenylacetoxy)spiro[bicyclo[3.2.1]octane-8,1′-pyrrolidin]-1′-ium chloride]", "values": [{"measurement": "Predicted urine levels achieved with oral trospium", "setting": "[1]", "value": "0.5 to 1", "unit": "µg/mL"}]}, {"compound": "O=C(O[C@H]1CN2CCC1CC2)N1CCc2ccccc2[C@@H]1c1ccccc1", "note": "[VESIcare®, solifenacin succinate]", "values": [{"measurement": "Reduction in average daily incontinence episodes from baseline", "setting": "[2]; oral treatment, oral naïve patients", "value": 1.4}]}, {"compound": "Cc1ccc(O)c([C@H](CCN(C(C)C)C(C)C)c2ccccc2)c1", "note": "[Detrol® LA, tolterodine tartrate]", "values": [{"measurement": "Reduction in average daily incontinence episodes from baseline", "setting": "[2]; in vivo, po", "value": 0.8}]}]}
